The values below come from US12064426B2, “Selective inhibitors of ROCK1 and ROCK2 protein kinases and uses thereof” (GENOSCO Inc., priority 2021, dated 2024).

The structures appear in SMILES notation.

Test [1] has as its target T1, Recombinant ROCK1 (amino acids 1-477) (Homo sapiens, UniProt Q13464).
T1 construct: Recombinant ROCK1 (amino acids 1-477); by word order, ROCK1 from Carna Biosciences
The experiment in a line: ROCK inhibition assay, LANCE Ultra TR-FRET kinase assay (ROCK1). In kind it is biochemical. Particulars: 1 μM ATP, 50 nM ULight-CREBtide substrate. An outline of the steps:
(§1)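 Reaction buffer 50 mM HEPES pH 7.5, 10 mM MgCl2, 1 mM EGTA, 2 mM DTT; kinase, ULight-CREBtide (50 nM) and ATP (ROCK1 1 μM, ROCK2 4 μM) react 1 h at room temperature. Phospho-Ser133 detected by europium antibody after 10 mM EDTA stop, TR-FRET ex 320 nm; IC50 calculated.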
Background: In TR-FRET formats the signal depends on donor and acceptor labels being close together.

For test [2], the target named is T2, Recombinant ROCK2 (amino acids 5-554) (Homo sapiens, UniProt O75116).
T2 construct: ROCK2 (amino acids 5-554); by word order, ROCK2 from SignalChem
The experiment in a line: ROCK inhibition assay, LANCE Ultra TR-FRET kinase assay (ROCK2). In kind it is biochemical. Particulars: 4 μM ATP, 50 nM ULight-CREBtide substrate. An outline of the steps: as §1

T1 sequence (Q13464 1-477): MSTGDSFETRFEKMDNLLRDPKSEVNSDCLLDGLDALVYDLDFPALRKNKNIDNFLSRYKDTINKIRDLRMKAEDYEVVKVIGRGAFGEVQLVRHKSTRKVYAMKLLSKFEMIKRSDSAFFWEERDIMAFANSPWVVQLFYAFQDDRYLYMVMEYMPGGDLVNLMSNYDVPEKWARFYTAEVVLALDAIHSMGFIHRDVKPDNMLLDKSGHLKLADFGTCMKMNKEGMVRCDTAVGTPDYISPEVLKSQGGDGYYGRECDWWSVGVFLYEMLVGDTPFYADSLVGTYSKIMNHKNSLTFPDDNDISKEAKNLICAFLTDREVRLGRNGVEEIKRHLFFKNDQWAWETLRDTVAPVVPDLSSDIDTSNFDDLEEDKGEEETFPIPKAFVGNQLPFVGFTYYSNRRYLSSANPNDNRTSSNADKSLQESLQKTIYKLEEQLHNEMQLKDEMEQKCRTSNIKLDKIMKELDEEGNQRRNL
T2 sequence (O75116 5-554): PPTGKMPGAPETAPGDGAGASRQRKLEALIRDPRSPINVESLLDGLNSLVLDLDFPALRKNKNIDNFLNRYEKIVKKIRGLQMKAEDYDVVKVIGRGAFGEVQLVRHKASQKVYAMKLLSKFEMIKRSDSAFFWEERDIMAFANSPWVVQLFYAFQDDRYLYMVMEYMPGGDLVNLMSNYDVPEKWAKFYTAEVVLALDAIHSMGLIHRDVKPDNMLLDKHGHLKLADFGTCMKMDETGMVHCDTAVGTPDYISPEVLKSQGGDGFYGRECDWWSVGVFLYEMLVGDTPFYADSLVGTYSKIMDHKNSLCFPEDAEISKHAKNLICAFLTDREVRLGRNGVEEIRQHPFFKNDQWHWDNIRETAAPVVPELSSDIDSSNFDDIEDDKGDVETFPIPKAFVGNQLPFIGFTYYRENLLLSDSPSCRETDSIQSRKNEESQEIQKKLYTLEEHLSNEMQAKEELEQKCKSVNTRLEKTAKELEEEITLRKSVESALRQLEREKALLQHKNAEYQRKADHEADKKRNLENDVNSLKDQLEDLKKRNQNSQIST

For orientation: IC50 means the concentration that gives 50% inhibition. `CNC(=O)c1cccc(Cn2ccc3cc(-c4cn[nH]c4)ccc3c2=O)c1` [Compound 308]: the IC50 in test [1] and in test [2] was less than 10 nM throughout.
Consider `O=C(NCC1CCOCC1)c1cc(F)cc(Cn2ccc3cc(-c4c[nH]nc4C(F)F)ncc3c2=O)c1` [Compound 276], for which the IC50 is 11 to 100 nM in test [1] and less than 10 nM in test [2].
On the same counts, the results for `Cc1nocc1-c1ccc2c(=O)n(Cc3cccc(C(=O)NCC4CCN(C5COC5)CC4)c3)ccc2c1` [Compound 84] are 101 to 500 nM and 10 to 100 nM.
Regarding `CN1CC(CNC(=O)c2cccc(Cn3ccc4cc(-c5ccnn5C)ccc4c3=O)c2)C1` [Compound 168], the IC50 in test [1] and in test [2] was less than 10 nM each time.
For the molecule `Cn1nccc1-c1ccc2c(=O)n(Cc3cccc(C(=O)NCC4CC(O)C4)c3)ccc2c1` (centres unmarked) [Compound 112], the results for the IC50 in test [1] and in test [2] were 101 to 500 nM and 10 to 100 nM, respectively.
With `CNC(=O)c1cccc(C(C)n2cc(CCO)c3cc(-c4cn[nH]c4F)ccc3c2=O)c1` (centres unmarked) [Compound 554], the results for the IC50 in test [1] and in test [2] were 11 to 100 nM and less than 10 nM, respectively.
As for `Cn1nccc1-c1cc2ccn(Cc3cc(F)cc(C(=O)NCC4CCOCC4)c3)c(=O)c2cn1` [Compound 270], the IC50 in test [1] lay in the range of 11 to 100 nM; in test [2], 10 to 100 nM.
For the molecule `Cn1nccc1-c1ccc2c(=O)n(Cc3cc(F)cc(C(=O)NC4CCNCC4)c3)ccc2c1` [Compound 177], the IC50 in test [1] was 11 to 100 nM; in test [2], less than 10 nM.
On the same counts, the results for `Cc1nocc1-c1ccc2c(=O)n(Cc3cc(F)cc(C(=O)NCC4CCN(C5COC5)CC4)c3)ccc2c1` [Compound 154] are 101 to 500 nM and less than 10 nM.
For the molecule `[2H]C([2H])([2H])NC(=O)c1cccc([C@@H](C)n2cnc3cc(-c4cn[nH]c4C(F)(F)F)ccc3c2=O)c1` [Compound 443], the IC50 in test [1] was 11 to 100 nM; in test [2] it was less than 10 nM.
As to `O=C(N[C@H]1CC[C@H](O)CC1)c1cccc(Cn2ccc3cc(N4CCOCC4)ccc3c2=O)c1` [Compound 213], the IC50 in test [1] is more than 501 nM; in test [2], 100 to 500 nM.
On the same counts, the results for `Cn1ccc(NC(=O)c2cccc(Cn3cnc4cc(-c5cn[nH]c5C(F)(F)F)ccc4c3=O)c2)n1` [Compound 374] are 11 to 100 nM and less than 10 nM.
On the same counts, the results for `COc1cccc(C(CO)n2cnc3cc(-c4cn[nH]c4C)ccc3c2=O)c1` (centres unmarked) [Compound 489] are 11 to 100 nM and 10 to 100 nM.
For `Cc1nocc1-c1ccc2c(=O)n(Cc3cccc(C(=O)NCC4CCN(C(C)C)CC4)c3)ccc2c1` [Compound 81] the same measures were 101 to 500 nM and 10 to 100 nM.
On to `CNC(=O)c1cccc(C(C)n2cc(CCO)c3cc(-c4cn[nH]c4Cl)ccc3c2=O)c1` (centres unmarked) [Compound 551], for which the half-inhibitory concentration (IC50) in test [1] was 11 to 100 nM; in test [2], less than 10 nM.
As for `CNC(=O)c1cncc(Cn2cnc3cc(-c4cn[nH]c4Cl)ccc3c2=O)c1` [Compound 403], the IC50 in test [1] is more than 501 nM; in test [2], 100 to 500 nM.
`CNC(=O)c1cccc(C(C)n2cnc3cc(-c4cn[nH]c4Cl)ccc3c2=O)c1` (centres unmarked) [Compound 406]: the IC50 in test [1] was 11 to 100 nM; in test [2], less than 10 nM.
On to `[2H]C([2H])([2H])NC(=O)c1cccc([C@@H](C)n2cnc3cc(-c4cn[nH]c4N)ccc3c2=O)c1` [Compound 519], for which the IC50 in test [1] is 11 to 100 nM; in test [2], less than 10 nM.
On to `Nc1cc(-c2ccc3c(=O)n(Cc4cccc(C(=O)Nc5nc6c(s5)CNCC6)c4)ccc3c2)ccn1` [Compound 190], for which the IC50 in test [1] and in test [2] was less than 10 nM each time.
On to `CN(C)c1cccc(CNC(=O)c2cccc(Cn3cnc4cc(-c5cn[nH]c5C(F)F)ccc4c3=O)c2)c1` [Compound 400], for which the results for the IC50 in test [1] and in test [2] were 101 to 500 nM and 10 to 100 nM, respectively.
For the molecule `Cc1nocc1-c1ccc2c(=O)n(Cc3cccc(C(=O)NCC4CCNCC4)c3)cnc2c1` [Compound 418], the IC50 in test [1] and in test [2] was less than 10 nM in each case.
Turning to `CNC(=O)c1cccc(Cn2cc(C(C)O)c3cc(-c4c[nH]nc4Cl)ccc3c2=O)c1` (centres unmarked) [Compound 541], the IC50 is 11 to 100 nM in test [1] and less than 10 nM in test [2].
